# Experimental data: BindingDB's records for doi:10.1016/j.bmcl.2003.10.074 (University of Kentucky, 2004)
# Test: Binding affinity towards blood brain barrier choline transporter at 10 uM using rat brain
row,SMILES,Ki
1,CCCC[n+]1ccccc1 [1-Butyl-pyridinium],250 µM
2,CCCCCCCCCC[n+]1cccc([C@@H]2CCCN2C)c1 [1-Decyl-3-((S)-1-methyl-pyrrolidin-2-yl)-pyridinium; iodide],27 µM
3,CCCCCCCC[n+]1cccc([C@@H]2CCCN2C)c1 [(S)-3-(1-methylpyrrolidin-2-yl)-1-octylpyridinium iodide],49 µM

# Other lines, results leading:
row,Ki,SMILES
1,250 µM,CCCCCCCC[n+]1ccccc1 [1-Octyl-pyridinium; iodide]
2,10 µM,CCCCCCCC[N+](C)(C)CCO [(2-Hydroxy-ethyl)-dimethyl-octyl-ammonium]
